# Tests used:
# Test in all cases: concentration in plasma after dosing
# Rat [1] = details: dosed: Formamide, 10 mg/kg, iv, Female, Harlan Sprague-Dawley
# Rat [2] = details: 2 h; dosed: Formamide; 10 mg/kg; iv; Male; F344
# Rat [3] = details: dosed: Formamide, 10 mg/kg, iv, Male, F344
# Rat [4] = details: dosed: Formamide, 10 mg/kg, iv, Male, F344; remark: listed apart in the source
# Rat [5] = details: dosed: Formamide, iv
# Rat [6] = details: 5 h; dosed: Formamide; 10 mg/kg; iv; Male; F344
# Rat [7] = details: 0.5 h; dosed: Formamide; 30 mg/kg; iv; Female; F344
# Rat [8] = details: dosed: Formamide, 10 mg/kg, iv, Male, F344; remark: listed apart in the source
# Rat [9] = details: dosed: Formamide, 10 mg/kg, iv, Male, F344; remark: listed apart in the source
# Rat [10] = details: 5 h; dosed: Formamide; 10 mg/kg; iv; Male; F344; remark: listed apart in the source
# Rat [11] = details: dosed: Formamide, 10 mg/kg, iv, Male, F344; remark: listed apart in the source
# Rat [12] = details: dosed: Formamide, 10 mg/kg, iv, Male, F344; remark: listed apart in the source
# Rat [13] = details: dosed: Formamide, 10 mg/kg, iv, Male, F344; remark: listed apart in the source
# Rat [14] = details: dosed: Formamide, 10 mg/kg, iv, Male, F344; remark: listed apart in the source
# Rat [15] = details: dosed: Formamide, 10 mg/kg, iv, Male, F344; remark: listed apart in the source
# Rat [16] = details: dosed: Formamide, 30 mg/kg, iv, Female, F344
# Rat [17] = details: dosed: Formamide, 10 mg/kg, iv, Male, F344; remark: listed apart in the source
# Rat [18] = details: dosed: Formamide, 30 mg/kg, iv, Female, F344; remark: listed apart in the source
# Rat [19] = details: dosed: Formamide, 10 mg/kg, iv, Female, F344
# Rat [20] = details: dosed: Formamide, 10 mg/kg, iv, Male, F344; remark: listed apart in the source
# Rat [21] = details: dosed: Formamide, 10 mg/kg, iv, Male, F344; remark: listed apart in the source
# Rat [22] = details: 0.5 h; dosed: Formamide; 10 mg/kg; iv; Male; F344
# Rat [23] = details: dosed: Formamide, 30 mg/kg, iv, Female, F344; remark: listed apart in the source
# Rat [24] = details: dosed: Formamide, 10 mg/kg, iv, Female, Harlan Sprague-Dawley; remark: listed apart in the source
# Rat [25] = details: dosed: Formamide, 10 mg/kg, iv, Male, F344; remark: listed apart in the source
# Rat [26] = details: dosed: Formamide, 30 mg/kg, iv, Female, F344; remark: listed apart in the source
# Rat [27] = details: dosed: Formamide, 10 mg/kg, iv, Male, F344; remark: listed apart in the source
# Rat [28] = details: dosed: Formamide, 30 mg/kg, iv, Female, F344; remark: listed apart in the source
# Rat [29] = details: 0.5 h; dosed: Formamide; 10 mg/kg; iv; Female; Harlan Sprague-Dawley
# Rat [30] = details: 5 h; dosed: Formamide; 10 mg/kg; iv; Male; F344; remark: listed apart in the source
# Rat [31] = details: 2 h; dosed: Formamide; 10 mg/kg; iv; Male; F344; remark: listed apart in the source
# Rat [32] = details: 3 h; dosed: Formamide; 10 mg/kg; iv; Male; F344
# Rat [33] = details: dosed: Formamide, 10 mg/kg, iv, Male, F344; remark: listed apart in the source
# Rat [34] = details: 2 h; dosed: Formamide; 10 mg/kg; iv; Male; F344; remark: listed apart in the source
# Rat [35] = details: 2 h; dosed: Formamide; 10 mg/kg; iv; Male; F344; remark: listed apart in the source
# Rat [36] = details: 0.5 h; dosed: Formamide; 10 mg/kg; iv; Female; Harlan Sprague-Dawley; remark: listed apart in the source
# Rat [37] = details: dosed: Formamide, 30 mg/kg, iv, Female, F344; remark: listed apart in the source
# Rat [38] = details: dosed: Formamide, 10 mg/kg, iv, Male, F344; remark: listed apart in the source
# Rat [39] = details: dosed: Formamide, 10 mg/kg, iv, Male, F344; remark: listed apart in the source
# Rat [40] = details: 5 h; dosed: Formamide; 10 mg/kg; iv; Male; F344; remark: listed apart in the source
# Rat [41] = details: 2 h; dosed: Formamide; 10 mg/kg; iv; Male; F344; remark: listed apart in the source
# Rat [42] = details: 0.5 h; dosed: Formamide; 10 mg/kg; iv; Male; F344; remark: listed apart in the source
# Rat [43] = details: dosed: Formamide, 10 mg/kg, iv, Female, F344; remark: listed apart in the source
# Rat [44] = details: dosed: Formamide, 30 mg/kg, iv, Female, F344; remark: listed apart in the source
# Rat [45] = details: dosed: Formamide, 10 mg/kg, iv, Male, F344; remark: listed apart in the source
smiles,measurement,setting,value
NC=O [Formamide],concentration in plasma,Rat [1]; 0.25 h,13000 ng/mL
same,concentration in plasma,Rat [1]; 24 h,2100 ng/mL
same,concentration in plasma,Rat [2],12400 ng/mL
same,concentration in plasma,Rat [3]; 5 min,12900 ng/mL
same,concentration in plasma,Rat [3]; 36 h,2200 ng/mL
same,concentration in plasma,Rat [4]; 1 h,14500 ng/mL
same,concentration in plasma,Rat [4]; 3 h,12400 ng/mL
same,concentration in plasma,"Rat [5]; 5 min, 10 mg/kg, Male, F344",11800 ng/mL
same,concentration in plasma,"Rat [5]; 5 min, 30 mg/kg, Female, F344",46500 ng/mL
same,concentration in plasma,"Rat [5]; 10 min, 10 mg/kg, Female, F344",3500 ng/mL
same,concentration in plasma,"Rat [5]; 10 min, 10 mg/kg, Male, F344",14200 ng/mL
same,concentration in plasma,"Rat [5]; 0.25 h, 10 mg/kg, Female, Harlan Sprague-Dawley",13600 ng/mL
same,concentration in plasma,"Rat [5]; 0.25 h, 10 mg/kg, Male, F344",7100 ng/mL
same,concentration in plasma,"Rat [5]; 0.25 h, 30 mg/kg, Female, F344",37100 ng/mL
same,concentration in plasma,"Rat [5]; 0.5 h, 10 mg/kg, Female, Harlan Sprague-Dawley",9300 ng/mL
same,concentration in plasma,"Rat [5]; 0.5 h, 10 mg/kg, Male, F344",14100 ng/mL
same,concentration in plasma,"Rat [5]; 0.5 h, 30 mg/kg, Female, F344",28200 ng/mL
same,concentration in plasma,"Rat [5]; 1 h, 10 mg/kg, Male, F344",14700 ng/mL
same,concentration in plasma,"Rat [5]; 2 h, 10 mg/kg, Male, F344",12500 ng/mL
same,concentration in plasma,"Rat [5]; 3 h, 10 mg/kg, Male, F344",13700 ng/mL
same,concentration in plasma,"Rat [5]; 5 h, 10 mg/kg, Female, Harlan Sprague-Dawley",13000 ng/mL
same,concentration in plasma,"Rat [5]; 5 h, 10 mg/kg, Male, F344",14200 ng/mL
same,concentration in plasma,"Rat [5]; 8 h, 10 mg/kg, Male, F344",8200 ng/mL
same,concentration in plasma,"Rat [5]; 8 h, 30 mg/kg, Female, F344",25000 ng/mL
same,concentration in plasma,"Rat [5]; 12 h, 10 mg/kg, Male, F344",6300 ng/mL
same,concentration in plasma,"Rat [5]; 12 h, 30 mg/kg, Female, F344",21400 ng/mL
same,concentration in plasma,"Rat [5]; 18 h, 10 mg/kg, Female, F344",3400 ng/mL
same,concentration in plasma,"Rat [5]; 18 h, 10 mg/kg, Male, F344",4000 ng/mL
same,concentration in plasma,"Rat [5]; 24 h, 10 mg/kg, Female, Harlan Sprague-Dawley",2300 ng/mL
same,concentration in plasma,"Rat [5]; 24 h, 10 mg/kg, Male, F344",3800 ng/mL
same,concentration in plasma,"Rat [5]; 24 h, 30 mg/kg, Female, F344",7900 ng/mL
same,concentration in plasma,"Rat [5]; 36 h, 10 mg/kg, Male, F344",2300 ng/mL
same,concentration in plasma,"Rat [5]; 36 h, 30 mg/kg, Female, F344",4300 ng/mL
same,concentration in plasma,"Rat [5]; 48 h, 30 mg/kg, Female, F344",1200 ng/mL
same,concentration in plasma,Rat [6],13400 ng/mL
same,concentration in plasma,Rat [7],39700 ng/mL
same,concentration in plasma,Rat [8]; 5 min,2100 ng/mL
same,concentration in plasma,Rat [8]; 36 h,2100 ng/mL
same,concentration in plasma,Rat [9]; 5 min,11900 ng/mL
same,concentration in plasma,Rat [9]; 36 h,2000 ng/mL
same,concentration in plasma,Rat [10],10500 ng/mL
same,concentration in plasma,Rat [11]; 8 h,5700 ng/mL
same,concentration in plasma,Rat [11]; 12 h,6800 ng/mL
same,concentration in plasma,Rat [12]; 8 h,9200 ng/mL
same,concentration in plasma,Rat [12]; 12 h,6700 ng/mL
same,concentration in plasma,Rat [13]; 10 min,15400 ng/mL
same,concentration in plasma,Rat [13]; 18 h,4700 ng/mL
same,concentration in plasma,Rat [14]; 5 min,11200 ng/mL
same,concentration in plasma,Rat [14]; 36 h,1400 ng/mL
same,concentration in plasma,Rat [15]; 10 min,10700 ng/mL
same,concentration in plasma,Rat [15]; 18 h,2900 ng/mL
same,concentration in plasma,Rat [16]; 0.25 h,16100 ng/mL
same,concentration in plasma,Rat [16]; 24 h,10100 ng/mL
same,concentration in plasma,Rat [17]; 8 h,8000 ng/mL
same,concentration in plasma,Rat [17]; 12 h,6700 ng/mL
same,concentration in plasma,Rat [18]; 0.25 h,17600 ng/mL
same,concentration in plasma,Rat [18]; 24 h,7700 ng/mL
same,concentration in plasma,Rat [19]; 10 min,8500 ng/mL
same,concentration in plasma,Rat [19]; 18 h,2900 ng/mL
same,concentration in plasma,Rat [20]; 8 h,7100 ng/mL
same,concentration in plasma,Rat [20]; 12 h,5600 ng/mL
same,concentration in plasma,Rat [21]; 1 h,12700 ng/mL
same,concentration in plasma,Rat [21]; 3 h,12800 ng/mL
same,concentration in plasma,Rat [22],13400 ng/mL
same,concentration in plasma,Rat [23]; 5 min,43900 ng/mL
same,concentration in plasma,Rat [23]; 36 h,2500 ng/mL
same,concentration in plasma,Rat [24]; 0.25 h,14700 ng/mL
same,concentration in plasma,Rat [24]; 24 h,2900 ng/mL
same,concentration in plasma,Rat [25]; 1 h,13400 ng/mL
same,concentration in plasma,Rat [25]; 3 h,11700 ng/mL
same,concentration in plasma,Rat [26]; 8 h,27500 ng/mL
same,concentration in plasma,Rat [26]; 12 h,22800 ng/mL
same,concentration in plasma,Rat [27]; 5 min,13700 ng/mL
same,concentration in plasma,Rat [27]; 36 h,3100 ng/mL
same,concentration in plasma,Rat [28]; 8 h,26800 ng/mL
same,concentration in plasma,Rat [28]; 12 h,22600 ng/mL
same,concentration in plasma,Rat [29],11100 ng/mL
same,concentration in plasma,Rat [30],13700 ng/mL
same,concentration in plasma,Rat [31],13000 ng/mL
same,concentration in plasma,Rat [32],12000 ng/mL
same,concentration in plasma,Rat [33]; 8 h,8600 ng/mL
same,concentration in plasma,Rat [33]; 12 h,5100 ng/mL
same,concentration in plasma,Rat [34],14100 ng/mL
same,concentration in plasma,Rat [35],12800 ng/mL
same,concentration in plasma,Rat [36],13500 ng/mL
same,concentration in plasma,Rat [37]; 5 min,39500 ng/mL
same,concentration in plasma,Rat [37]; 36 h,3400 ng/mL
same,concentration in plasma,Rat [38]; 0.25 h,6900 ng/mL
same,concentration in plasma,Rat [38]; 24 h,2900 ng/mL
same,concentration in plasma,Rat [39]; 0.25 h,13300 ng/mL
same,concentration in plasma,Rat [39]; 24 h,3900 ng/mL
same,concentration in plasma,Rat [40],9600 ng/mL
same,concentration in plasma,Rat [41],12600 ng/mL
same,concentration in plasma,Rat [42],11100 ng/mL
same,concentration in plasma,Rat [43]; 10 min,12500 ng/mL
same,concentration in plasma,Rat [43]; 18 h,3300 ng/mL
same,concentration in plasma,Rat [44]; 0.5 h,44700 ng/mL
same,concentration in plasma,Rat [44]; 48 h,1600 ng/mL
same,concentration in plasma,Rat [45]; 1 h,13500 ng/mL
same,concentration in plasma,Rat [45]; 3 h,13300 ng/mL

# — EPA's CvTdb concentration-time database
